Tests used:
[1] = target: T1, human melatonin ML1a receptor (Homo sapiens, UniProt P48039); experiment: Melatonergic receptor binding activity (2-[125I]-iodomelatonin binding, membranes of NIH-3T3 cells expressing ML1a); conditions: 37° C. for 1 hour, read-out: Melatonin Binding Affinity (IC50)
T1 construct: expressed in transfected cells; membrane homogenates
Description: Melatonergic Receptor Binding Activity
(a) TME=50 mM Tris buffer containing 12.5 mM MgCl2, and 2 mM EDTA, pH 7.4 at 37° C. with concentrated HCl.
(b) Wash buffer: 20 mM Tris base containing 2 mM MgCl2, pH 7.4 at room temperature.
(c) 10^-4 M melatonin (10^-5 M final concentration).
(d) 2-[^125 I]-iodomelatonin, 0.1 M final concentration
The melatonin ML1a receptor cDNA was subcloned into pcDNA3 and introduced into NIH-3T3 cells using Lipofectamine. Transformed NIH-3T3 cells resistant to geneticin (G-418) were isolated, and single colonies expressing high levels of 2[^125 I]-iodomelatonin binding were isolated. Cells are maintained in DMEM supplemented with 10% calf serum and G-418 (0.5 g/liter). Cells are grown to confluency in T-175 flasks, scraped using Hank's balanced salt solution, and frozen at -80° C. For preparing membrane homogenates, pellets are thawed on ice, and resuspended in TME buffer in the presence of 10 μg/ml aprotinin and leupeptin, and 100 ,μM phenylmethylsulfonylfluoride. The cells were then homogenized using a dounce homogenizer, and centrifuged. The resulting pellet was resuspended with dounce homogenizer in TME (supplemented with the above protease inhibitors) and frozen. On the day of assay, the small aliquot was thawed on ice and resuspended in ice cold TME (1:50-1:100 v/v) and held on ice until assayed.
37° C. for 1 hour. Reaction is terminated by filtration. Filters are washed 3 times.
^a = IC50 values for ML1a human melatonin receptor binding

[2] = system: circadian rhythms in rats; conditions: cited from earlier work

T1 sequence (P48039 whole entry): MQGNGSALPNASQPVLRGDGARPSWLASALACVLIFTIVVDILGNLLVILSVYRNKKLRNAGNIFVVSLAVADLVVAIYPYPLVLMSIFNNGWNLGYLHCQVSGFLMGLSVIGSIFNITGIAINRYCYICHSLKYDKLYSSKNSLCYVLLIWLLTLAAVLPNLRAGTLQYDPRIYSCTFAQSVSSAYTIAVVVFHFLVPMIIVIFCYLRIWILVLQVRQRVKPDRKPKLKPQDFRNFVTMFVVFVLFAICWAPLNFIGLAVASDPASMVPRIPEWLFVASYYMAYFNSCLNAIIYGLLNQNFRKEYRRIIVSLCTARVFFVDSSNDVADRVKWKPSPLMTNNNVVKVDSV

| IC50 [1] | Compound | effect of exogenous melatonin administration on circadian rhythms [2] |
| --- | --- | --- |
| < 10 nM | CCNC(=O)N[C@@H]1CCN(c2cccc3c2CCO3)C1 [Example 21, (R)-N-[N-(2,3-dihydrobenzofuran-4-yl)-pyrrolidin-3-yl]-N'-ethyl urea] |  |
|  | COc1ccc2[nH]cc(CCNC(C)=O)c2c1 [melatonin, N-acetyl-5-methoxytryptamine] | synchronize circadian rhythms in rats |
| 10 to 200 nM | O=C(NC1CC1)N[C@@H]1CCN(c2cccc3c2CCO3)C1 [Example 30, (R)-N-[N-(2,3-Dihydrobenzofuran-4-yl)-Pyrrolidin-3-yl]-N'-Cylopropyl Urea] |  |
| < 10 nM | COCC(=O)N[C@H]1CCN(c2cccc3c2CCO3)C1 [Example 11, (S)-N-[N-(2,3-dihydrobenzofuran-4-yl)-pyrrolidin-3-yl]methoxyacetamide] |  |
| < 10 nM | O=C(N[C@@H]1CCN(c2cccc3c2CCO3)C1)C1CC1 [Example 10, (R)-N-[N-(2,3-dihydrobenzofuran-4-yl)-pyrrolidin-3-yl]cyclopropane carboxamide] |  |
| < 10 nM | CC(=O)N[C@H]1CCN(c2c(Cl)cc(Cl)c3c2CCO3)C1 [Example 35, (S)-N-[N-(5,7-Dichloro-2,3-Dihydrobenzofuran-4-yl)-Pyrrolidin-3-yl]Acetamide] |  |
| < 10 nM | CCNC(=O)N[C@H]1CCN(c2cccc3c2CCO3)C1 [Example 20, (S)-N-[N-(2,3-dihydrobenzofuran-4-yl)-pyrrolidin-3-yl]-N'-ethyl urea] |  |
| < 10 nM | CCC(=O)N[C@H]1CCN(c2cccc3c2CCCO3)C1 [Example 13, (S)-N-[N-(2H-2,3-dihydrobenzopyran-5-yl)-pyrrolidin-3-yl]propanamide] |  |
| 10 to 200 nM | CCC(=O)N[C@@H]1CCN(c2cccc3c2CCO3)C1 [Example 4, (R)-N-[N-(2,3-dihydrobenzofuran-4-yl)-pyrrolidin-3-yl]propanamide] |  |
| 10 to 200 nM | CN(C)C(=O)N[C@H]1CCN(c2cccc3c2CCO3)C1 [Example 32, (S)-N-[N-(2,3-dihydrobenzofuran-4-yl)-pyrrolidin-3-yl]-N',N'-dimethyl urea] |  |
| 10 to 200 nM | CC(=O)N[C@H]1CCN(c2cccc3c2OCCO3)C1 [Example 14, (S)-N-[N-(2,3-dihydro-1,4-benzodioxin-5-yl)-pyrrolidin-3-yl]acetamide] |  |
| 10 to 200 nM | CCNC(=O)N[C@H]1CCN(c2cccc3c2OCCO3)C1 [Example 28, (S)-N-[N-(2,3-dihydro-1,4-benzodioxin-5-yl)-pyrrolidin-3-yl]-N'-ethyl urea] |  |
| < 10 nM | CCCC(=O)N[C@H]1CCN(c2c(Cl)ccc3c2CCO3)C1 [Example 36, (S)-N-[N-(5-chloro-2,3-dihydrobenzofuran-4-yl)-pyrrolidin-3-yl]butyramide] |  |

Reference: patent US6211225A, “Heterocyclic aminopyrrolidine derivatives as melatonergic agents” (Bristol-Meyers Squibb, priority 2000, dated 2001)
